Source: patent US6689773B2, “Uracil substituted phenyl sulfamoyl carboxamides” (BASF Aktiengesellschaft, priority 2000, dated 2004)

Tests used:
Type in all cases: in vivo
[1] = system: ABUTH, Velvetleaf, Abutilon theophrasti, Medic.; assay: Postemergence herbicidal evaluation (Example 147); settings: rating scale 0-9, two to three weeks after treatment
Description: (§1) Seedling plants were grown in jiffy flats for about two weeks. The test compounds were dispersed in 80/20 acetone/water mixtures containing 1.0% SUN-IT®II, a methylated seed oil, in sufficient quantities to provide the equivalent of about 0.016 to 0.032 kg per hectare of active compound when applied to the plants through a spray nozzle operating at 40 psi for a predetermined time. After spraying, the plants were placed on greenhouse benches and were cared for in accordance with conventional greenhouse procedures. Approximately two to three weeks after treatment, the seedling plants were examined and rated according to the rating scale (0-9) set forth below. Where more than one test is involved for a given compound, the data are averaged. [table] The scale is based upon a visual observation of plant stand, vigor, malformation, size, chlorosis and overall plant appearance as compared with a control. Plant species employed in these evaluations are reported by header abbreviation, common name and scientific name. [table]

[2] = system: ALOMY, Blackgrass, Alopecurus myosuroides; assay: Postemergence herbicidal evaluation (Example 147); settings: rating scale 0-9, two to three weeks after treatment
Description: as §1

[3] = system: AMBEL, Ragweed, Common, Ambrosia artemiisifolia, L.; assay: Postemergence herbicidal evaluation (Example 147); settings: rating scale 0-9, two to three weeks after treatment
Description: as §1

[4] = system: CHEAL, Lambsquarters, Chenopodium album, L. Common; assay: Postemergence herbicidal evaluation (Example 147); settings: rating scale 0-9, two to three weeks after treatment
Description: as §1

[5] = system: DIGSA, Crabgrass, (Hairy) L, Digitaria sanguinalis, (L)Scop; assay: Postemergence herbicidal evaluation (Example 147); settings: rating scale 0-9, two to three weeks after treatment
Description: as §1

[6] = system: ECHCG, Barnyardgrass, Echinochloa crusgalli, (L.)Beau; assay: Postemergence herbicidal evaluation (Example 147); settings: rating scale 0-9, two to three weeks after treatment
Description: as §1

[7] = system: GLXMA, Soybean, Glycine max, (L.) Merr.; assay: Postemergence herbicidal evaluation (Example 147); settings: rating scale 0-9, two to three weeks after treatment
Description: as §1

[8] = system: IPOHE, Morningglory, Ivyleaf, Ipomoea hederacea, (L)Jacq.; assay: Postemergence herbicidal evaluation (Example 147); settings: rating scale 0-9, two to three weeks after treatment
Description: as §1

[9] = system: SETVI, Green foxtail, Setaria viridis, (L.)Beau; assay: Postemergence herbicidal evaluation (Example 147); settings: rating scale 0-9, two to three weeks after treatment
Description: as §1

[10] = system: TRZAW, Winter wheat, Tritium Aestivum, L. (Winter); assay: Postemergence herbicidal evaluation (Example 147); settings: rating scale 0-9, two to three weeks after treatment
Description: as §1

[11] = system: XANST, Cocklebur, Xanthium strumariam; assay: Postemergence herbicidal evaluation (Example 147); settings: rating scale 0-9, two to three weeks after treatment
Description: as §1

[12] = system: ZEAMX, Field corn, Zea mays L.; assay: Postemergence herbicidal evaluation (Example 147); settings: rating scale 0-9, two to three weeks after treatment
Description: as §1

[13] = system: ABUTH, Velvetleaf, Abutilon theophrasti, Medic.; assay: Preemergence herbicidal evaluation (Example 148); settings: rating scale 0-9, two to four weeks after treatment
Description: (§2) The scale is based upon a visual observation of plant stand, vigor, malformation, size, chlorosis and overall plant appearance as compared with a control.
(§3) The herbicidal activity of the compounds of the present invention was evaluated by the following tests wherein the seeds of a variety of monocotyledonous and dicotyledonous plants were separately mixed with potting soil and planted on top of approximately one inch of soil in separate pint cups. After planting, the cups were sprayed with the selected aqueous acetone solution containing test compound in sufficient quantity to provide the equivalent of about 0.125 to 0.250 kg per hectare of test compound per cup. The treated cups were then placed on greenhouse benches, watered and cared for in accordance with conventional greenhouse procedures. From two to four weeks after treatment, the tests were terminated and each cup was examined and rated according to the rating system provided in Example 94. When more than one test was performed for a given compound, the data were averaged.

[14] = system: ALOMY, Blackgrass, Alopecurus myosuroides; assay: Preemergence herbicidal evaluation (Example 148); settings: rating scale 0-9, two to four weeks after treatment
Description: as §2, §3

[15] = system: AMBEL, Ragweed, Common, Ambrosia artemiisifolia, L.; assay: Preemergence herbicidal evaluation (Example 148); settings: rating scale 0-9, two to four weeks after treatment
Description: as §2, §3

[16] = system: CHEAL, Lambsquarters, Chenopodium album, L. Common; assay: Preemergence herbicidal evaluation (Example 148); settings: rating scale 0-9, two to four weeks after treatment
Description: as §2, §3

[17] = system: DIGSA, Crabgrass, (Hairy) L, Digitaria sanguinalis, (L)Scop; assay: Preemergence herbicidal evaluation (Example 148); settings: rating scale 0-9, two to four weeks after treatment
Description: as §2, §3

[18] = system: ECHCG, Barnyardgrass, Echinochloa crusgalli, (L.)Beau; assay: Preemergence herbicidal evaluation (Example 148); settings: rating scale 0-9, two to four weeks after treatment
Description: as §2, §3

[19] = system: GLXMA, Soybean, Glycine max, (L.) Merr.; assay: Preemergence herbicidal evaluation (Example 148); settings: rating scale 0-9, two to four weeks after treatment
Description: as §2, §3

[20] = system: IPOHE, Morningglory, Ivyleaf, Ipomoea hederacea, (L)Jacq.; assay: Preemergence herbicidal evaluation (Example 148); settings: rating scale 0-9, two to four weeks after treatment
Description: as §2, §3

[21] = system: SETVI, Green foxtail, Setaria viridis, (L.)Beau; assay: Preemergence herbicidal evaluation (Example 148); settings: rating scale 0-9, two to four weeks after treatment
Description: as §2, §3

[22] = system: TRZAW, Winter wheat, Tritium Aestivum, L. (Winter); assay: Preemergence herbicidal evaluation (Example 148); settings: rating scale 0-9, two to four weeks after treatment
Description: as §2, §3

[23] = system: ZEAMX, Field corn, Zea mays L.; assay: Preemergence herbicidal evaluation (Example 148); settings: rating scale 0-9, two to four weeks after treatment
Description: as §2, §3

CCCNS(=O)(=O)NC(=O)c1cc(-n2c(=O)cc(C(F)(F)F)n(C)c2=O)c(F)cc1Cl [Example 63]
8.0: Postemergence herbicidal rating GLXMA ([7]; rate 0.016 kg/ha) | Postemergence herbicidal rating GLXMA ([7]; rate 0.032 kg/ha) | Postemergence herbicidal rating ZEAMX ([12]; rate 0.032 kg/ha) | Preemergence herbicidal rating DIGSA ([17]; rate 0.25 kg/ha) | Preemergence herbicidal rating SETVI ([21]; rate 0.25 kg/ha)
7.0: Postemergence herbicidal rating CHEAL ([4]; rate 0.016 kg/ha) | Postemergence herbicidal rating SETVI ([9]; rate 0.016 kg/ha) | Postemergence herbicidal rating TRZAW ([10]; rate 0.032 kg/ha) | Postemergence herbicidal rating ZEAMX ([12]; rate 0.016 kg/ha)
2.0: Postemergence herbicidal rating ALMOY ([2]; rate 0.016 kg/ha) | Postemergence herbicidal rating ALMOY ([2]; rate 0.032 kg/ha)
3.0: Preemergence herbicidal rating DIGSA ([17]; rate 0.125 kg/ha)
6.0: Postemergence herbicidal rating ECHCG ([6]; rate 0.032 kg/ha) | Postemergence herbicidal rating TRZAW ([10]; rate 0.016 kg/ha)
5.0: Preemergence herbicidal rating GLXMA ([19]; rate 0.25 kg/ha)
0.0: Preemergence herbicidal rating ALMOY ([14]; rate 0.125 kg/ha) | Preemergence herbicidal rating ALMOY ([14]; rate 0.25 kg/ha) | Preemergence herbicidal rating TRZAW ([22]; rate 0.125 kg/ha) | Preemergence herbicidal rating TRZAW ([22]; rate 0.25 kg/ha) | Preemergence herbicidal rating ZEAMX ([23]; rate 0.125 kg/ha) | Preemergence herbicidal rating ZEAMX ([23]; rate 0.25 kg/ha)
9.0: Postemergence herbicidal rating ABUTH ([1]; rate 0.016 kg/ha) | Postemergence herbicidal rating ABUTH ([1]; rate 0.032 kg/ha) | Postemergence herbicidal rating AMBEL ([3]; rate 0.016 kg/ha) | Postemergence herbicidal rating AMBEL ([3]; rate 0.032 kg/ha) | Postemergence herbicidal rating CHEAL ([4]; rate 0.032 kg/ha) | Postemergence herbicidal rating IPOHE ([8]; rate 0.016 kg/ha) | Postemergence herbicidal rating IPOHE ([8]; rate 0.032 kg/ha) | Postemergence herbicidal rating SETVI ([9]; rate 0.032 kg/ha) | Postemergence herbicidal rating XANST ([11]; rate 0.016 kg/ha) | Postemergence herbicidal rating XANST ([11]; rate 0.032 kg/ha) | Preemergence herbicidal rating ABUTH ([13]; rate 0.125 kg/ha) | Preemergence herbicidal rating ABUTH ([13]; rate 0.25 kg/ha) | Preemergence herbicidal rating AMBEL ([15]; rate 0.125 kg/ha) | Preemergence herbicidal rating AMBEL ([15]; rate 0.25 kg/ha) | Preemergence herbicidal rating CHEAL ([16]; rate 0.125 kg/ha) | Preemergence herbicidal rating CHEAL ([16]; rate 0.25 kg/ha) | Preemergence herbicidal rating ECHCG ([18]; rate 0.25 kg/ha) | Preemergence herbicidal rating IPOHE ([20]; rate 0.125 kg/ha) | Preemergence herbicidal rating IPOHE ([20]; rate 0.25 kg/ha)
4.0: Postemergence herbicidal rating DIGSA ([5]; rate 0.016 kg/ha) | Postemergence herbicidal rating DIGSA ([5]; rate 0.032 kg/ha) | Postemergence herbicidal rating ECHCG ([6]; rate 0.016 kg/ha) | Preemergence herbicidal rating ECHCG ([18]; rate 0.125 kg/ha) | Preemergence herbicidal rating SETVI ([21]; rate 0.125 kg/ha)
1.0: Preemergence herbicidal rating GLXMA ([19]; rate 0.125 kg/ha)
